The text below walks through data of US20030139427A1, “Bicyclic pyrimidinyl derivatives and methods of use thereof” (OSI Pharmaceuticals Inc., priority 2002, published 2003).

Structures are written as SMILES. Where two headings read alike, the source gives them in different places.

Assay [1] deals with T1, human A2a receptor subtype (Homo sapiens, UniProt P29274).
T1 construct: purchased Receptor Biology (Beltsville, Md.) RB-HA2a; host or cells: HEK-293, stably expressing
Briefly: Adenosine 2a receptor subtype competition radioligand binding, [3H]CGS-21680, HEK293 membranes.

For assay [2], the target named is T2, human A2b receptor subtype (Homo sapiens, UniProt P29275).
T2 construct: purchased Receptor Biology (Beltsville, Md.) RB-HA2b; host or cells: HEK-293, stably expressing
T2 sequence (P29275 1-332): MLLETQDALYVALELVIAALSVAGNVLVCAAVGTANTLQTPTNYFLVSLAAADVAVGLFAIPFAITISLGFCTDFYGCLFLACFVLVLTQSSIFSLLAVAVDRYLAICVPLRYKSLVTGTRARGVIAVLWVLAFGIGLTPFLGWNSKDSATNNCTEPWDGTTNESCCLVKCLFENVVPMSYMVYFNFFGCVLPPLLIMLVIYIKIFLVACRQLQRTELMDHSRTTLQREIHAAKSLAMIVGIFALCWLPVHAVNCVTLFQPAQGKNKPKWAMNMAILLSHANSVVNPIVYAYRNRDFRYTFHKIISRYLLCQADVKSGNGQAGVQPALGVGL
Briefly: Adenosine 2b receptor subtype competition radioligand binding, [3H]DPCPX, HEK293 membranes.

The target in assay [3] is T3, human A1 receptor subtype (Homo sapiens, UniProt P30542).
T3 sequence (P30542 1-326): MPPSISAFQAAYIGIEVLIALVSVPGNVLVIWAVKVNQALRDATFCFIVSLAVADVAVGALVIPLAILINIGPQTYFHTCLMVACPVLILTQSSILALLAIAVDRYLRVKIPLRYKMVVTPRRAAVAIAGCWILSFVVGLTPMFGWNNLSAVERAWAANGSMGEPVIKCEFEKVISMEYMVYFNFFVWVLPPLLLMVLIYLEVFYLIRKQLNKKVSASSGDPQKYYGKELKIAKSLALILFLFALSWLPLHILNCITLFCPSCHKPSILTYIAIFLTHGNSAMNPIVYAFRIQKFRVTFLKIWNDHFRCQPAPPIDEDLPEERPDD
Kind of assay: biochemical.

The target of assay [4] is T3, human A1 receptor subtype. Conditions: for Ki: read-out: A1 Binding Ki, Tables 7-13, deazapurine analogues.
For assay [5], the target named is T4, hA3R (Homo sapiens, UniProt P0DMS8).
T4 sequence (P0DMS8 1-318): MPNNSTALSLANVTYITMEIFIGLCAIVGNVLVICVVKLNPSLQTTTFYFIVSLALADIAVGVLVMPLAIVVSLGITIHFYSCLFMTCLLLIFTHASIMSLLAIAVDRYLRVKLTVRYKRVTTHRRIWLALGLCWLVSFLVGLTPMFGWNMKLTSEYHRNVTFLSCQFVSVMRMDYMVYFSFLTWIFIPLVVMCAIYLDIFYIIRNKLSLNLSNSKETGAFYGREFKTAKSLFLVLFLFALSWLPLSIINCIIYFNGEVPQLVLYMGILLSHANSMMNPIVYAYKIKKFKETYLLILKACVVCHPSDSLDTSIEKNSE
Kind of assay: Displacement binding of [3H]CPX, yeast membranes expressing human A3 receptor. As to conditions: read-out: IC50 [nM] hA3R, 0.4 nM [3H]CPX.

Assay [6] addresses T5, human A3 receptor subtype (Homo sapiens, UniProt P0DMS8).
T5 construct: purchased Receptor Biology (Beltsville, Md.) RB-HA3; host or cells: HEK-293, stably expressing
T5 sequence (P0DMS8 1-318): T4 sequence (P0DMS8 1-318)
Kind of assay: Adenosine 3 receptor competition radioligand binding, [125I]AB-MECA, HEK293 membranes.

In assay [7] the test system is PDE4 (Human). Kind of assay: PDE4 inhibition. In kind it is biochemical.

T1 sequence (P29274 whole entry): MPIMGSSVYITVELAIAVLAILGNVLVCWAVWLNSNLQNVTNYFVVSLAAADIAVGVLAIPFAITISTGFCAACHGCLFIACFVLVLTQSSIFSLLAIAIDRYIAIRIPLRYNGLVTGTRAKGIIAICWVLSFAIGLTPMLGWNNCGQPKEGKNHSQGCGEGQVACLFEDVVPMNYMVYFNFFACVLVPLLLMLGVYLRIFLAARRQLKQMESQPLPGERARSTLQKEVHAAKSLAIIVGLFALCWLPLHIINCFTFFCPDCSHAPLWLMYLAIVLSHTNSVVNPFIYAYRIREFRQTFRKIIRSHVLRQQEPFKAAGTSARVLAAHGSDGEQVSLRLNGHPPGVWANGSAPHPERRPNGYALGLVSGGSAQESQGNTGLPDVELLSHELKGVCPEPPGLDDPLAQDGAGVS

On to `CC(=O)NCCNc1nc(-c2ccccc2)nc2[nH]c(C)c(C)c12` [Compound 1300], for which the Ki (usually the equilibrium dissociation constant of an inhibitor or competing ligand from its target) in assay [1] lay within 18 to 48.6 nM.

On to `CC(=O)NCCNc1nc(-c2ccccc2)nc2[nH]ncc12`, for which the Ki in assay [1] (Table 6, read-out: Ki − A2A) was found to be 49.5 nM; in assay [2] (Table 6, read-out: Ki − A2B), 32.1 nM; in assay [3] it was 11.4 nM.

With `O[C@H]1CC[C@H](Nc2nc(-c3ccccc3)nc3[nH]c(CN4CCOCC4)cc23)CC1` [Compound 1503], the “Ki-A1 (Adenosine A1 Receptor Selective Compounds)” value in assay [4] (selectivity versus other three subtypes) is “* (at least 10 times more selective than other three subtypes.)”.

For the molecule `NC(=O)[C@H]1CCCN1c1nc(-c2ccccc2)nc2[nH]ncc12`, the Ki in assay [1] (Table 6, read-out: Ki − A2A) is 243 nM; in assay [2] (Table 6, read-out: Ki − A2B) it was 1480 nM; in assay [3], 76.7 nM.

For the molecule `NC(=O)[C@@H]1CCCN1c1nc(-c2ccccc2)nc2[nH]nnc12`, the inhibition constant (Ki) is 5540 nM in assay [1] (Table 6, read-out: Ki − A2A); 5560 nM in assay [2] (Table 6, read-out: Ki − A2B); 81.3 nM in assay [3].

With `CC(=O)NCCNc1nc(-c2ccccc2)nc2[nH]cnc12`, the Ki in assay [1] (Table 6, read-out: Ki − A2A) came to 24.8 nM; in assay [2] (Table 6, read-out: Ki − A2B), 22 nM; in assay [3], 7.4 nM.

On to `O=c1nc2[nH]c3ccccc3nc-2c(=O)[nH]1` [Alloxazine], for which the IC50 (in general, the point on the concentration scale where inhibition reaches its midpoint) in assay [5] was determined as 8220 nM.

Turning to `Cc1[nH]c2nc(-c3ccccc3)nc(NC3CCC(OC(=O)c4ccccc4)CC3)c2c1C` (stereo not drawn) [Compound 606], the Ki in assay [4] amounted to 298 nM.

`CNC(=O)NCCCNc1nc(-c2ccccc2)nc2[nH]c(C)c(C)c12` [Compound 1310]: the “A2a, value printed as % in Ki column” value in assay [1] (Table 14) is 76%.

Turning to `NC(=O)[C@@H]1CCCN1c1nc(-c2ccccc2)nc2[nH]cnc12`, the Ki came out at 19.1 nM in assay [1] (Table 6, read-out: Ki − A2A); 63.1 nM in assay [2] (Table 6, read-out: Ki − A2B); 0.9 nM in assay [3].

On to `O[C@H]1CC[C@H](Nc2nc(-c3ccccc3)nc3[nH]nnc23)CC1`, for which the Ki came to 1530 nM in assay [1] (Table 6, read-out: Ki − A2A); 4210 nM in assay [2] (Table 6, read-out: Ki − A2B); 52.4 nM in assay [3].

On to `Cc1[nH]c2nc(-c3ccccc3)nc(NC3CCC(OC(=O)c4ccccc4)CC3)c2c1C` (stereo not drawn) [Compound 611], for which the Ki in assay [4] was determined as 786 nM.

For the molecule `O[C@H]1CC[C@H](Nc2nc(-c3ccccc3)nc3[nH]ncc23)CC1`, the Ki was determined as 432 nM in assay [1] (Table 6, read-out: Ki − A2A); 1460 nM in assay [2] (Table 6, read-out: Ki − A2B); 664 nM in assay [6] (Table 6, read-out: Ki − A3); 4.4 nM in assay [3]. Further, the “PDE4 (Human) Inhibition at 10 μM” value in assay [7] was 89%.

Regarding `O[C@H]1CC[C@H](Nc2nc(-c3ccccc3)nc3[nH]cnc23)CC1`, the Ki in assay [1] (Table 6, read-out: Ki − A2A) is 96.8 nM; in assay [2] (Table 6, read-out: Ki − A2B) it was 69.3 nM; in assay [6] (Table 6, read-out: Ki − A3), 174 nM; in assay [3], 1.5 nM. For the same molecule, in assay [7], the “PDE4 (Human) Inhibition at 10 μM” value stood at 79%.

As for `NC(=O)[C@H]1CCCN1c1nc(-c2ccccc2)nc2[nH]cnc12`, the Ki worked out at 21.1 nM in assay [1] (Table 6, read-out: Ki − A2A); 168 nM in assay [2] (Table 6, read-out: Ki − A2B); 12.3 nM in assay [3].

Consider `O[C@H]1CC[C@H](Nc2nc(-c3ccncc3)nc3[nH]ccc23)CC1` [Compound 1321], for which the “A3, % activity @ 10 μM” value in assay [6] (Table 14, 10 μM) came to 54%^8.

With `Cc1[nH]c2nc(-c3ccccc3)nc(N[C@H]3CC[C@H](O)CC3)c2c1C` [Compound 1304], the Ki in assay [2] (Table 14, read-out: Binding Ki (nM) A2b) was determined as 138 nM; in assay [6] (Table 14, read-out: Binding Ki (nM) A3), 21.5 nM.

On to `NC(=O)[C@@H]1CCCN1c1nc(-c2ccccc2)nc2[nH]ncc12`, for which the inhibition constant Ki in assay [1] (Table 6, read-out: Ki − A2A) amounted to 66.8 nM; in assay [2] (Table 6, read-out: Ki − A2B), 97.4 nM; in assay [6] (Table 6, read-out: Ki − A3) it was 261 nM; in assay [3], 0.6 nM. The “PDE4 (Human) Inhibition at 10 μM” value in assay [7] is listed as 34%.
